Assay results reported in ChEMBL document CHEMBL1201862, “PubChem BioAssay data set” (2004).
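Assay format: 96-well plates, 48-hour exposure. GI50 marks 50% less growth.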 Calls of active or inactive are those of the source. Rule as the data show it: active = GI50 up to about 1.1 µM and inactive = higher.

What was measured:
Experiment in all cases: NCI anticancer screen, dose series, 48 h
786-0 = test system: 786-0
A498 = test system: A498
A549 = test system: A549
ACHN = test system: ACHN
BT-549 = test system: BT-549
CAKI-1 = test system: CAKI-1
CCRF-CEM = test system: CCRF-CEM
COLO 205 = test system: COLO 205
DU-145 = test system: DU-145
EKVX = test system: EKVX
HCC 2998 = test system: HCC 2998
HCT-116 = test system: HCT-116
HCT-15 = test system: HCT-15
HL-60 = test system: HL-60
HOP-62 = test system: HOP-62
HOP-92 = test system: HOP-92
HT-29 = test system: HT-29
Hs-578T = test system: Hs-578T
IGROV-1 = test system: IGROV-1
K562 = test system: K562
KM12 = test system: KM12
LOX IMVI = test system: LOX IMVI
M14 = test system: M14
MCF7 = test system: MCF7
MDA-MB-231 = test system: MDA-MB-231
MDA-MB-435 = test system: MDA-MB-435
MDA-N = test system: MDA-N
MOLT-4 = test system: MOLT-4
Malme-3M = test system: Malme-3M
NCI-H226 = test system: NCI-H226
NCI-H23 = test system: NCI-H23
NCI-H460 = test system: NCI-H460
NCI-H522 = test system: NCI-H522
NCI/ADR-RES = test system: NCI/ADR-RES
OVCAR-3 = test system: OVCAR-3
OVCAR-4 = test system: OVCAR-4
OVCAR-5 = test system: OVCAR-5
OVCAR-8 = test system: OVCAR-8
PC-3 = test system: PC-3
RPMI-8226 = test system: RPMI-8226
RXF 393 = test system: RXF 393
SF-268 = test system: SF-268
SF-295 = test system: SF-295
SF-539 = test system: SF-539
SK-MEL-28 = test system: SK-MEL-28
SK-MEL-2 = test system: SK-MEL-2
SK-MEL-5 = test system: SK-MEL-5
SK-OV-3 = test system: SK-OV-3
SN12C = test system: SN12C
SNB-19 = test system: SNB-19
SNB-75 = test system: SNB-75
SR = test system: SR
SW-620 = test system: SW-620
T47D = test system: T47D
TK-10 = test system: TK-10
U-251 = test system: U-251
UACC-257 = test system: UACC-257
UACC-62 = test system: UACC-62
UO-31 = test system: UO-31
DLD-1 = test system: DLD-1
LXFL 529 = test system: LXFL 529
M19-MEL = test system: M19-MEL
SNB-78 = test system: SNB-78

Measured: GI50

N#Cc1c(N)nc(SCc2ccccc2)c(C#N)c1-c1ccc(O)cc1
11.2 µM: HCT-15
inactive: 786-0 14 µM | A498 13.1 µM | A549 11.7 µM | ACHN 13.2 µM | BT-549 11.6 µM | CAKI-1 13500 nM | CCRF-CEM 13.4 µM | COLO 205 15.6 µM | DU-145 13.5 µM | EKVX 9.44 µM | HCC 2998 > 38.5 µM | HCT-116 11.5 µM | HL-60 11.3 µM | HOP-62 15.2 µM | HOP-92 6.97 µM | HT-29 8.22 µM | Hs-578T 29.2 µM | IGROV-1 11 µM | K562 11 µM | KM12 11 µM | LOX IMVI 16.6 µM | M14 14.2 µM | MCF7 13.9 µM | MDA-MB-231 12.3 µM | MDA-MB-435 11.6 µM | MDA-N 13 µM | MOLT-4 5.53 µM | Malme-3M 15.3 µM | NCI-H226 22.4 µM | NCI-H23 15.9 µM | NCI-H460 25.8 µM | NCI-H522 12.6 µM | NCI/ADR-RES 15.7 µM | OVCAR-3 14.6 µM | OVCAR-4 10.3 µM | OVCAR-5 16.4 µM | OVCAR-8 15 µM | PC-3 15.5 µM | RPMI-8226 5.24 µM | RXF 393 15.9 µM | SF-268 18.9 µM | SF-295 13.6 µM | SF-539 19.5 µM | SK-MEL-28 13.4 µM | SK-MEL-2 15.2 µM | SK-MEL-5 11.7 µM | SK-OV-3 15.5 µM | SN12C 13.8 µM | SNB-19 17.3 µM | SNB-75 16.8 µM | SR 10.9 µM | SW-620 15.2 µM | T47D 5.96 µM | TK-10 > 41.8 µM | U-251 13.9 µM | UACC-257 > 37.5 µM | UACC-62 15.7 µM | UO-31 1.81 µM

CC/C(Cl)=N\OC(=O)Nc1ccc(OC)c(C)c1
inactive: 786-0 12.5 µM | A498 26.5 µM | A549 27.9 µM | ACHN 8.93 µM | BT-549 12.9 µM | CCRF-CEM 4.93 µM | COLO 205 15.1 µM | DU-145 28 µM | EKVX 3.15 µM | HCC 2998 19.6 µM | HCT-116 12.6 µM | HL-60 3.5 µM | HOP-62 34.4 µM | HOP-92 2.82 µM | HT-29 17.4 µM | Hs-578T 16.9 µM | IGROV-1 16.4 µM | K562 15.7 µM | KM12 23.8 µM | LOX IMVI 10.9 µM | M14 17.9 µM | MCF7 16.7 µM | MDA-MB-231 30.6 µM | MDA-MB-435 34.2 µM | MDA-N 18.7 µM | MOLT-4 5.74 µM | Malme-3M 11.4 µM | NCI-H226 26.4 µM | NCI-H23 15 µM | NCI-H460 41.2 µM | NCI-H522 2.21 µM | NCI/ADR-RES 15 µM | OVCAR-3 16.4 µM | OVCAR-4 16.2 µM | OVCAR-5 30.5 µM | OVCAR-8 17.5 µM | PC-3 28.8 µM | RPMI-8226 11.9 µM | RXF 393 14.6 µM | SF-268 29.2 µM | SF-295 80.4 µM | SF-539 17.4 µM | SK-MEL-28 23.2 µM | SK-MEL-2 19 µM | SK-MEL-5 18.7 µM | SK-OV-3 58.6 µM | SN12C 15.9 µM | SNB-19 42.1 µM | SNB-75 80 µM | SR 3.04 µM | SW-620 24.3 µM | T47D 13.9 µM | TK-10 20.6 µM | U-251 45.3 µM | UACC-257 16.5 µM | UACC-62 15 µM | UO-31 15.3 µM
6.34 µM: HCT-15
active: CAKI-1 832 nM

CCOC(=O)N1CCC(N[C@@H]2c3cc4c(cc3[C@@H](c3cc(OC)c(O)c(OC)c3)[C@H]3C(=O)OC[C@@H]32)OCO4)CC1
active: A498 0.358 µM | ACHN 0.431 µM | CAKI-1 478 nM | CCRF-CEM 0.697 µM | HOP-62 0.714 µM | HOP-92 0.5 µM | NCI-H23 0.527 µM | NCI-H460 0.065 µM | SF-295 0.499 µM | SK-OV-3 0.8 µM | SNB-19 0.69 µM | UACC-62 1.03 µM | UO-31 1.02 µM
inactive: 786-0 1.15 µM | COLO 205 4.3 µM | DLD-1 5.21 µM | EKVX 2.69 µM | HCT-116 3.4 µM | HT-29 4.13 µM | IGROV-1 2.9 µM | K562 3.98 µM | KM12 2.86 µM | LOX IMVI 1.26 µM | LXFL 529 7.53 µM | M14 1.7 µM | M19-MEL 3.12 µM | Malme-3M 3.46 µM | OVCAR-3 5.06 µM | OVCAR-8 1.85 µM | SF-268 3.5 µM | SF-539 1.23 µM | SK-MEL-28 7.08 µM | SK-MEL-2 5.81 µM | SK-MEL-5 1.48 µM | SNB-75 2.67 µM | SNB-78 10.2 µM | SW-620 2.58 µM | UACC-257 5.16 µM
0.796 µM: HCT-15
